Experimental data reported in PubChem BioAssay (NCI).
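Grown in 96-well plates, cells were treated for 48 hours with each compound at five concentrations. Insufficient inhibition: endpoint recorded as highest concentration tested. GI50 marks 50% less growth. At the TGI there is no net growth.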

What was measured:
Test in all cases: NCI-60 cell line screen, 48 h
RPMI-8226 leukemia = test system: RPMI-8226 leukemia
786-0 renal = test system: 786-0 renal
OVCAR-8 ovarian = test system: OVCAR-8 ovarian
SNB-19 CNS = test system: SNB-19 CNS
SK-MEL-5 melanoma = test system: SK-MEL-5 melanoma
EKVX NSCLC = test system: EKVX NSCLC
IGROV1 ovarian = test system: IGROV1 ovarian
OVCAR-4 ovarian = test system: OVCAR-4 ovarian
NCI-H460 lung = test system: NCI-H460 lung
MDA-MB-231 breast = test system: MDA-MB-231 breast

| Compound | TGI (RPMI-8226 leukemia) [µM] | TGI (786-0 renal) [µM] | TGI (OVCAR-8 ovarian) [µM] | TGI (SNB-19 CNS) [µM] | TGI (SK-MEL-5 melanoma) [µM] | TGI (EKVX NSCLC) [µM] | TGI (IGROV1 ovarian) [µM] | TGI (OVCAR-4 ovarian) [µM] | TGI (NCI-H460 lung) [µM] | GI50 (MDA-MB-231 breast) [µM] | TGI (MDA-MB-231 breast) [µM] | GI50 (RPMI-8226 leukemia) [µM] | GI50 (786-0 renal) [µM] | GI50 (OVCAR-8 ovarian) [µM] | GI50 (SNB-19 CNS) [µM] | GI50 (SK-MEL-5 melanoma) [µM] | GI50 (EKVX NSCLC) [µM] | GI50 (IGROV1 ovarian) [µM] | GI50 (OVCAR-4 ovarian) [µM] | GI50 (NCI-H460 lung) [µM] |
| --- | --- | --- | --- | --- | --- | --- | --- | --- | --- | --- | --- | --- | --- | --- | --- | --- | --- | --- | --- | --- |
| NCCCCCCNCc1cccc2ccccc12 | > 100 | > 100 | > 100 | > 100 | > 100 | > 100 | > 100 | > 100 | > 100 | – | – | – | – | – | – | – | – | – | – | – |
| CC1=C[C@H]2C[C@H](C)[C@H]3CC[C@H](C)[C@]4(C1)C(=O)C(O)=C(C)C(=O)[C@@]324 | 32.4 | > 100 | > 100 | > 100 | 30.8 | > 100 | > 100 | > 100 | > 100 | 20.8 | 65.7 | 13.1 | 30.1 | 40.4 | 30.2 | 13.5 | 42.9 | 29.6 | 29.8 | 42.9 |
| CC1=C(C)C2(O)C(=C(C)C1=O)/C(=C(/O)c1ccccc1)c1nc3ccccc3n12 (stereo not given) | 33.2 | 83.9 | 41 | 46.9 | 31.3 | 60.4 | 30.4 | 27.1 | 50.8 | 15.4 | 30 | 13.2 | 29.5 | 18 | 19.7 | 16.6 | 24.5 | 12.3 | 13.5 | 18.5 |
| COC1OC(C)C2OC(C)(C)OC2C1OC(C)=O (stereo not given) | > 100 | > 100 | > 100 | > 100 | > 100 | – | > 100 | > 100 | > 100 | – | – | – | – | – | – | – | – | – | – | – |
| CC12CCC3c4cc(Br)c(O)c(Br)c4CCC3C1CCC2O (stereo not given) | – | 42 | 42.1 | – | – | 45.4 | 34 | – | – | – | 27.4 | – | – | – | – | – | – | – | – | – |
| Cc1ccc(C)c(NC(=O)CC2SC(=Nc3ccccc3Cl)NC2=O)c1 (stereo not given) | – | > 100 | > 100 | > 100 | > 100 | > 100 | > 100 | > 100 | > 100 | – | – | – | – | – | – | – | – | – | – | – |
| C=CCOC(=O)C1CCC(=O)N1C(=O)C(Cl)Cl (stereo not given) | > 100 | > 100 | > 100 | > 100 | > 100 | > 100 | > 100 | > 100 | > 100 | – | – | – | – | – | – | – | – | – | – | – |
| COc1cc2c(cc1C1=NC(C)(C)CO1)OCO2 | > 100 | > 100 | > 100 | > 100 | > 100 | > 100 | > 100 | > 100 | > 100 | – | – | – | – | – | – | – | – | – | – | – |
| CN(C)CCNC(=O)c1cccc2ccc(-c3ccc(-c4ccccc4)cc3)nc12 | – | 3.39 | 7.66 | 25.1 | 3.1 | 24.6 | > 44.9 | 6.74 | 2.98 | – | – | – | – | – | – | – | – | – | – | – |
| CCn1c2c(c3ccccc31)C(c1ccccc1)CC1C(=O)N(c3ccccc3)C(=O)C21 (stereo not given) | – | > 100 | > 100 | > 100 | > 100 | > 100 | > 100 | > 100 | > 100 | – | – | – | – | – | – | – | – | – | – | – |
| CCCCCCCCCCCCCC(=O)CSCCNC(=O)CCNC(=O)[C@@H](O)C(C)(C)COP(=O)(O)OP(=O)(O)OCC1OC(n2cnc3c(N)ncnc32)C(O)C1OP(=O)(O)O (stereo not given in full) | – | 30.1 | 83.5 | 35.2 | 34.5 | 41.3 | 28.6 | 22.3 | 79.7 | – | – | – | – | – | – | – | – | – | – | – |
| COc1ccccc1NS(=O)(=O)c1ccc2oc(SC(C)C)nc2c1 | 24.4 | > 100 | > 100 | > 100 | 17.4 | 78.7 | – | 77.6 | > 100 | 12.4 | 52 | 2.4 | 26.6 | 25.6 | 37.7 | 3.99 | 6.4 | – | 8.67 | 15.7 |
| CCOC(=O)C(CNc1ccc(O)cc1)NC(=O)c1ccccc1 (stereo not given) | > 100 | > 100 | > 100 | > 100 | > 100 | > 100 | > 100 | > 100 | > 100 | – | – | – | – | – | – | – | – | – | – | – |
| CCN1C[C@]2(COC)[C@H](O)C[C@H](OC)[C@]34C1[C@H]([C@H](OC)[C@H]23)[C@]1(OC(C)=O)[C@H]2[C@@H](OC(=O)c3ccccc3)[C@](O)(C[C@H]24)[C@@H](OC)[C@@H]1O | – | > 100 | > 100 | > 100 | > 100 | > 100 | > 100 | > 100 | > 100 | – | > 100 | – | – | – | – | – | – | – | – | – |
| CC(C)(C)OC(=O)c1cccnc1/C=N/O | – | > 100 | > 100 | > 100 | > 100 | > 100 | > 100 | > 100 | > 100 | – | – | – | – | – | – | – | – | – | – | – |
| C/C=C/COC(=O)CO[N+](=O)[O-] | > 100 | > 100 | > 100 | > 100 | – | > 100 | > 100 | > 100 | > 100 | – | – | – | – | – | – | – | – | – | – | – |
| C#CC1(O)CCC2[C@@H]3CCc4cc(Oc5nc(F)nc(-c6c7ccccc7cn6C)n5)ccc4C3CC[C@@]21C (stereo not given in full) | > 70.7 | > 100 | > 100 | > 100 | – | > 100 | – | > 100 | > 100 | – | – | – | – | – | – | – | – | – | – | – |
| Cn1c(=O)c2[nH]cnc2n(CC(N)=O)c1=O | > 100 | > 100 | > 100 | > 100 | > 100 | > 100 | > 100 | – | > 100 | – | – | – | – | – | – | – | – | – | – | – |
| CCN(CC)CCn1[nH]c2c3ccc(=O)cc3sc3c(NCCN)ccc1c32 | 1.97 | 8.94 | 12.7 | 4.29 | 2.91 | 7.13 | 8.57 | 2.28 | 1.25 | – | – | – | – | – | – | – | – | – | – | – |
| CC(=O)N(O)Cc1ccccc1 | > 100 | > 100 | > 100 | > 100 | > 100 | – | > 100 | > 100 | > 100 | – | – | – | – | – | – | – | – | – | – | – |
| S=C=NCCc1ccccc1 | 2.04 | 1.05 | 5.57 | 7.85 | 1.39 | 30.4 | 1.37 | 6.33 | 0.765 | – | – | – | – | – | – | – | – | – | – | – |
